Laboratory results taken from patent publication US20200085047A1, “Use of an Acyclic Picolinamide Compound as a Fungicide for Control of Phytopathogenic Fungi in Vegetables” (Dow AgroSciences LLC, priority 2017, published 2020).

Columns and labels:
Assay type in all cases: in vivo
Colletotrichum capsici = assay: Field assessment of Colletotrichum capsici (COLLCA) on hot peppers, 4 day curative; conditions: 5% EC + Trycol, hot pepper
Excerpt: Field Assessment of Colletotrichum capsici (COLLCA) on Hot Peppers:
For the 4 day curative trial, a fungicidal treatment containing a 5% EC formulation of compound I plus an adjuvant (Trycol, 50% w/w at 0.2% v/v), was sprayed on hot pepper plants (CPSAN) twice, the first application at the flowering and fruiting stage 59 days after planting, with the second application after 7 days. Formulations of compound I were applied at rates of 50, 100, 150 and 200 grams of active ingredient per hectare (g ai/ha). The experimental plots were inoculated with the anthracnose pathogen 4 days before the first application (curative). The treatment was part of an experimental trial designed as a randomized complete block with four replications and a plot of approximately 2×1 m, with formulations of compound I being applied at water volume of 1200 L/ha.
Disease severity was assessed as the percent fruit area diseased per plant (6 plants per plot randomly). Anthracnose infection was assessed four times, 7 days after application A (DAAA), plus 7, 14 and 21 DAAB. Area under the disease progress curve (AUDPC) was calculated for each plot using the sets of recorded visual infection data. Relative AUDPC (% control based on AUDPC) was calculated as percent of the nontreated control.

Colletotrichum coccodes = assay: Field assessment of Colletotrichum coccodes (COLLCA) in tomato; conditions: SC
Excerpt: Field Assessment of Colletotrichum Coccodes (COLLCA) in Tomato:
A fungicidal treatment containing Compound I, applied in an SC formulation (MSO built-in) and tank mixed with an adjuvant (Agnique BP-420, 50% w/w at 0.2% v/v or Adsee C80W 80%), was sprayed on tomato plants (LYPES, Roma VS Saladette type variety) at growth stage 12 in vegetative growth at rates of 50, 75, 100, and 150 grams of active ingredient per hectare (g ai/ha). The experimental plots were run with natural infestation of the anthracnose pathogen and supplemented with additional inoculum about one day after the 1st application. The treatment was part of an experimental trial designed as a randomized complete block (RCB) with four replications and a plot of approximately 6.67×30 ft. Compound I was applied at water volume of 40 gal/acre, using a backpack sprayer (carbon dioxide (CO2), 8004VS FF nozzles) and pressurized at 38 psi.
Percent leaf severity was assessed three times during the trial (0-23 days after application 1). Area under the disease progress curve (AUDPC) was calculated for each plot using the recorded leaf severity data. Relative AUDPC (% control based on AUDPC) was calculated as percent of the untreated control.

Botrytis cinerea = assay: Greenhouse assessment of Botrytis cinerea (BOTRCI) on broad bean; conditions: inoculated 1-day post application
Method: Greenhouse Assessment of Botrytis cinerea (BOTRCI) on Broad Bean: Technical grades of material were dissolved in acetone, which were then mixed with nine volumes of water containing 100 ppm of Triton X-100. The fungicide formulations were applied onto seedling plants using an automated booth sprayer to run off. All sprayed plants were allowed to dry prior to further handling. Test plants were inoculated with Botrytis cinerea 1-day post application. When disease symptoms were fully expressed on the untreated plants, percent diseased area of the plant was assessed on a scale of 0 to 100 percent disease severity. Percent disease control was calculated using the ratio of disease severity on treated plants relative to untreated plants.

Corynespora cassiicola = assay: Field assessment of Corynespora cassiicola (CORYCA) in tomato; conditions: SC
Excerpt: Field Assessment of Corynespora cassiicola (CORYCA) in Tomato:
A fungicidal treatment containing Compound I, applied in an SC formulation (MSO built-in) and tank mixed with an adjuvant (Agnique BP-420, 50% w/w at 0.2% v/v or Adsee C80W 80%), was sprayed on tomato plants (LYPES, Charger variety) at growth stage BBCH64 (4th flower open) at rates of 50, 75, 100, and 150 grams of active ingredient per hectare (g ai/ha). The experimental plots were inoculated with the target spot pathogen one day after initial application. The treatment was part of an experimental trial designed as a randomized complete block (RCB) with four replications and a plot of approximately 6×25 feet (ft). Compound I was applied at water volume of 100 gallons per acre (gal/acre), using a tractor sprayer (SCDISC D1 Nozzles) and pressurized at 200 psi.
Disease severity (percentage of visual diseased foliage (leaf) on whole plot) was assessed four times during the trial (1-20 days after application, DAA). Area under the disease progress curve (AUDPC) was calculated for each plot using the sets of recorded severity data. Relative AUDPC (% control based on AUDPC) was calculated as percent of the untreated control.

Alternaria solani = assay: Field assessment of Alternaria solani (ALTESO) on tomato, trial 2 (natural disease pressure); conditions: for Percent disease control on tomato leaves, Trial 2, 5% EC: 5% EC + Agnique BP420; for Percent disease control on tomato leaves, Trial 2, 10% SC: 10% SC + Agnique BP420
Excerpt: Field Assessment of Alternaria solani (ALTESO) on Tomato:
In a replicated trial, a fungicidal treatment containing Compound I, applied in both a 5% EC and 10% SC formulation and tank mixed with an adjuvant (Agnique BP420, 50% w/w at 0.3% v/v), was sprayed on tomato plants (LYPES, Taylor variety) at approximately 21 days after planting. Formulations of compound I was applied at rates of 100 and 200 grams of active ingredient per hectare (g ai/ha). The trial was based on six foliar applications at 10 day intervals under natural disease pressure of tomato early blight. The treatment was part of an experimental trial designed as a randomized complete block with four replications and a plot of approximately 2×4 m. Formulations of compound I were applied at water volume of 800 L/ha, using a backpack plot sprayer (BKPCKENG, Solo 443; HCSOLID—Albutz ATR80 Orange Nozzle) and pressurized at 300 kPa. Disease severity (percent control) was recorded as percent visual leaf infection per plot and was assessed at 10 days after the last application.

[1] = Compound I 50 g/ha, Agnique BP420, 200 mL/ha
[2] = Compound I 50 g/ha, MSO, 100 g/ha
[3] = Compound I 75 g/ha, MSO, 150 g/ha
[4] = Compound I 100 g/ha, Adsee C80W 80%, 250 g/ha
[5] = Compound I 100 g/ha, Agnique BP420, 400 mL/ha
[6] = Compound I 100 g/ha, MSO, 200 g/ha
[7] = Compound I 150 g/ha, Agnique BP420, 600 mL/ha
[8] = Compound I 150 g/ha, MSO, 300 g/ha

COc1ccnc(C(=O)N[C@@H](C)C(=O)O[C@@H](C)C(c2ccc(F)cc2)c2ccc(F)cc2)c1OC(C)=O [Compound I, (S)-1,1-bis(4-fluorophenyl)propan-2-yl (3-acetoxy-4-methoxypicolinoyl)-L-alaninate]
Percent control based on AUDPC, COLLCA 4 DC (Colletotrichum capsici; 50 g ai/ha): C (26-50)
Percent control based on AUDPC, COLLCA 4 DC (Colletotrichum capsici; 100 g ai/ha): B (51-75)
Percent control based on AUDPC, COLLCA 4 DC (Colletotrichum capsici; 150 g ai/ha): B (51-75)
Percent control based on AUDPC, COLLCA 4 DC (Colletotrichum capsici; 200 g ai/ha): B (51-75)
Percent Control of COLLCA (AUDPC) (Colletotrichum coccodes; [1]): 67%
Percent Control of COLLCA (AUDPC) (Colletotrichum coccodes; [2]): 46.0%
Percent Control of COLLCA (AUDPC) (Colletotrichum coccodes; Compound I 75 g/ha, Agnique BP420, 2300 mL/ha): 91.1%
Percent Control of COLLCA (AUDPC) (Colletotrichum coccodes; [3]): 75.5%
Percent Control of COLLCA (AUDPC) (Colletotrichum coccodes; [4]): 57.3%
Percent Control of COLLCA (AUDPC) (Colletotrichum coccodes; [5]): 91.0%
Percent Control of COLLCA (AUDPC) (Colletotrichum coccodes; [6]): 92.6%
Percent Control of COLLCA (AUDPC) (Colletotrichum coccodes; [7]): 95.7%
Percent Control of COLLCA (AUDPC) (Colletotrichum coccodes; [8]): 95.3%
% Control, BOTRCI (Botrytis cinerea; 6.25 ppm): B (51-75)
% Control, BOTRCI (Botrytis cinerea; 25 ppm): A (76-100)
% Control, BOTRCI (Botrytis cinerea; 100 ppm): A (76-100)
% Control, BOTRCI (Botrytis cinerea; 400 ppm): A (76-100)
Percent Control of CORYCA (AUDPC) (Corynespora cassiicola; [1]): 53.1%
Percent Control of CORYCA (AUDPC) (Corynespora cassiicola; [2]): 55.2%
Percent Control of CORYCA (AUDPC) (Corynespora cassiicola; Compound I 75 g/ha, Agnique BP420, 300 mL/ha): 56.9%
Percent Control of CORYCA (AUDPC) (Corynespora cassiicola; [3]): 56.1%
Percent Control of CORYCA (AUDPC) (Corynespora cassiicola; [4]): 61.4%
Percent Control of CORYCA (AUDPC) (Corynespora cassiicola; [5]): 74.1%
Percent Control of CORYCA (AUDPC) (Corynespora cassiicola; [6]): 71.6%
Percent Control of CORYCA (AUDPC) (Corynespora cassiicola; [7]): 83.9%
Percent Control of CORYCA (AUDPC) (Corynespora cassiicola; [8]): 84.0%
Percent disease control on tomato leaves, Trial 2, 5% EC (Alternaria solani; 100 g ai/ha): A (76-100)
Percent disease control on tomato leaves, Trial 2, 10% SC (Alternaria solani; 100 g ai/ha): A (76-100)
Percent disease control on tomato leaves, Trial 2, 5% EC (Alternaria solani; 200 g ai/ha): A (76-100)
Percent disease control on tomato leaves, Trial 2, 10% SC (Alternaria solani; 200 g ai/ha): A (76-100)
